Among the data in patent publication US8394952B2 (Vertex Pharmaceuticals Incorporated, priority 2006, dated 2013) are Ki values, retold here.

The term Ki denotes a measure of affinity in units of concentration, obtained from inhibition or displacement.

Where “and” joins values, the source holds several entries; their conditions need not be identical. Identical values can stand only once. A value given as a limit tells only on which side of the number the result lay.

Sequence of Plk1 (P53350 20-338): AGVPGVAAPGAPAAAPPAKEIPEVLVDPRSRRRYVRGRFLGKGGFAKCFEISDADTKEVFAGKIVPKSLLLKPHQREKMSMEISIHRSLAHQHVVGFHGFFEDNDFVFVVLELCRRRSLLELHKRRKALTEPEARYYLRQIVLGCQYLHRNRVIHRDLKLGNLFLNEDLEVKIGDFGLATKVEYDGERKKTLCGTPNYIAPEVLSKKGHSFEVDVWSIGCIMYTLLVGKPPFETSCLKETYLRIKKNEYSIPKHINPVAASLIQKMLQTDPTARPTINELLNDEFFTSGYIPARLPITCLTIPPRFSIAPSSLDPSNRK

The test has as its target Plk1 (Homo sapiens, UniProt P53350). In words: biochemical.
The compound `COc1cc(C(=O)NC2CC2)ccc1Nc1ncc2c(n1)N(C1CCCC1)C[C@@H](C)C(=O)N2C` [Compound I-184, (R)-4-(9-cyclopentyl-5,7-dimethyl-6-oxo-6,7,8,9-tetrahydro-5H-pyrimido[4,5-b][1,4]diazepin-2-ylamino)-N-cyclopropyl-3-methoxybenzamide] displayed a Ki of less than 10 nM. As for `COc1cc(C(=O)NC2CCCC2)ccc1Nc1ncc2c(n1)N(C1CCCC1)C[C@@H](C)C(=O)N2C` [Compound I-185, (R)—N-cyclopentyl-4-(9-cyclopentyl-5,7-dimethyl-6-oxo-6,7,8,9-tetrahydro-5H-pyrimido[4,5-b][1,4]diazepin-2-ylamino)-3-methoxybenzamide], the figure is less than 10 nM; as for `COc1cc(C(=O)NC2CCC2)ccc1Nc1ncc2c(n1)N(C1CCCC1)C[C@@H](C)C(=O)N2C` [Compound I-186, (R)—N-cyclobutyl-4-(9-cyclopentyl-5,7-dimethyl-6-oxo-6,7,8,9-tetrahydro-5H-pyrimido[4,5-b][1,4]diazepin-2-ylamino)-3-methoxybenzamide], less than 10 nM; as for `COc1cc(C(=O)N[C@@H]2CCOC2)ccc1Nc1ncc2c(n1)N(C1CCCC1)CC(C)(C)C(=O)N2C` [Compound I-187, (R)-4-(9-cyclopentyl-5,7,7-trimethyl-6-oxo-6,7,8,9-tetrahydro-5H-pyrimido[4,5-b][1,4]diazepin-2-ylamino)-3-methoxy-N-(tetrahydrofuran-3-yl)benzamide], less than 10 nM. As for `COc1ccccc1Nc1ncc2c(n1)N(C1CCCC1)CCC(=O)N2C` [Compound I-188, 9-cyclopentyl-2-(2-methoxyphenylamino)-5-methyl-8,9-dihydro-5H-pyrimido[4,5-b][1,4]diazepin-6(7H)-one], the figure is 10 to 100 nM; as for `CCC1CN(C2CCCC2)c2nc(Nc3ccc(C(=O)NC)cc3OC)ncc2N(C)C1=O` (stereo not shown) [Compound I-190, 4-(9-cyclopentyl-7-ethyl-5-methyl-6-oxo-6,7,8,9-tetrahydro-5H-pyrimido[4,5-b][1,4]diazepin-2-ylamino)-3-methoxy-N-methylbenzamide], less than 10 nM.

Regarding `CNC(=O)c1ccc(Nc2ncc3c(n2)N(C2CC4CCC2C4)CC(C)(C)C(=O)N3C)c(OC)c1` (stereo not shown) [Compound I-191, 4-(9-(bicyclo[2.2.1]heptan-2-yl)-5,7,7-trimethyl-6-oxo-6,7,8,9-tetrahydro-5H-pyrimido[4,5-b][1,4]diazepin-2-ylamino)-3-methoxy-N-methylbenzamide], the Ki is less than 10 nM. Then `CNC(=O)c1ccc(Nc2ncc3c(n2)N(CC2CNCCO2)CC(C)(C)C(=O)N3C)c(OC)c1` (stereo not shown) [Compound I-192, 3-methoxy-N-methyl-4-(5,7,7-trimethyl-9-(morpholin-2-ylmethyl)-6-oxo-6,7,8,9-tetrahydro-5H-pyrimido[4,5-b][1,4]diazepin-2-ylamino)benzamide], with < 10 nM and 10 to 100 nM; and `COc1cc(C(=O)NCc2ccco2)ccc1Nc1ncc2c(n1)N(C1CCCC1)CC(C)(C)C(=O)N2C` [Compound I-193, 4-(9-cyclopentyl-5,7,7-trimethyl-6-oxo-6,7,8,9-tetrahydro-5H-pyrimido[4,5-b][1,4]diazepin-2-ylamino)-N-(furan-2-ylmethyl)-3-methoxybenzamide], with less than 10 nM. As for `COc1cc(C(=O)NCC2CCCO2)ccc1Nc1ncc2c(n1)N(C1CCCC1)CC(C)(C)C(=O)N2C` (stereo not shown) [Compound I-194, 4-(9-cyclopentyl-5,7,7-trimethyl-6-oxo-6,7,8,9-tetrahydro-5H-pyrimido[4,5-b][1,4]diazepin-2-ylamino)-3-methoxy-N-((tetrahydrofuran-2-yl)methyl)benzamide], the figure is less than 10 nM. As for `COc1cc(C(=O)NCC2CCOCC2)ccc1Nc1ncc2c(n1)N(C1CCCC1)CC(C)(C)C(=O)N2C` [Compound I-195, 4-(9-cyclopentyl-5,7,7-trimethyl-6-oxo-6,7,8,9-tetrahydro-5H-pyrimido[4,5-b][1,4]diazepin-2-ylamino)-3-methoxy-N-((tetrahydrofuran-2H-pyran-4-yl)methyl)benzamide], the figure is less than 10 nM. Turning to `COc1cc(C(=O)NCC2CCCCC2)ccc1Nc1ncc2c(n1)N(C1CCCC1)CC(C)(C)C(=O)N2C` [Compound I-196, N-(cyclohexylmethyl)-4-(9-cyclopentyl-5,7,7-trimethyl-6-oxo-6,7,8,9-tetrahydro-5H-pyrimido[4,5-b][1,4]diazepin-2-ylamino)-3-methoxybenzamide], the inhibitory constant (Ki) is less than 10 nM. As for `COCCNC(=O)c1ccc(Nc2ncc3c(n2)N(C2CCCC2)CC(C)(C)C(=O)N3C)c(OC)c1` [Compound I-197, 4-(9-cyclopentyl-5,7,7-trimethyl-6-oxo-6,7,8,9-tetrahydro-5H-pyrimido[4,5-b][1,4]diazepin-2-ylamino)-3-methoxy-N-(2-methoxyethyl)benzamide], the figure is less than 10 nM. Then `COCCCNC(=O)c1ccc(Nc2ncc3c(n2)N(C2CCCC2)CC(C)(C)C(=O)N3C)c(OC)c1` [Compound I-198, 4-(9-cyclopentyl-5,7,7-trimethyl-6-oxo-6,7,8,9-tetrahydro-5H-pyrimido[4,5-b][1,4]diazepin-2-ylamino)-3-methoxy-N-(3-methoxypropyl)benzamide], with less than 10 nM; and `COc1cc(C(=O)N2CCOCC2)ccc1Nc1ncc2c(n1)N(C1CCCC1)CC(C)(C)C(=O)N2C` [Compound I-199, 9-cyclopentyl-2-(2-methoxy-4-(morpholine-4-carbonyl)phenylamino)-5,7,7-trimethyl-8,9-dihydro-5H-pyrimido[4,5-b][1,4]diazepin-6(7H)-one], with less than 10 nM. Then `COc1cc(C(=O)Nc2ccccc2)ccc1Nc1ncc2c(n1)N(C1CCCC1)CC(C)(C)C(=O)N2C` [Compound I-200, 4-(9-cyclopentyl-5,7,7-trimethyl-6-oxo-6,7,8,9-tetrahydro-5H-pyrimido[4,5-b][1,4]diazepin-2-ylamino)-3-methoxy-N-phenylbenzamide], with less than 10 nM; and `COc1cc(C(=O)NCc2ccccc2)ccc1Nc1ncc2c(n1)N(C1CCCC1)CC(C)(C)C(=O)N2C` [Compound I-201], with less than 10 nM; and `COc1cc(C(=O)NCc2cccnc2)ccc1Nc1ncc2c(n1)N(C1CCCC1)CC(C)(C)C(=O)N2C` [Compound I-202, 4-(9-cyclopentyl-5,7,7-trimethyl-6-oxo-6,7,8,9-tetrahydro-5H-pyrimido[4,5-b][1,4]diazepin-2-ylamino)-3-methoxy-N-(pyridin-3-ylmethyl)benzamide], with less than 10 nM. In the case of `COc1cc(C(=O)NCCc2ccccc2)ccc1Nc1ncc2c(n1)N(C1CCCC1)CC(C)(C)C(=O)N2C` [Compound I-203, 4-(9-cyclopentyl-5,7,7-trimethyl-6-oxo-6,7,8,9-tetrahydro-5H-pyrimido[4,5-b][1,4]diazepin-2-ylamino)-3-methoxy-N-phenethylbenzamide], the Ki is less than 10 nM. Then `COc1cc(C(=O)N[C@H]2CC[C@H](O)CC2)ccc1Nc1ncc2c(n1)N(C1CCCC1)CC(C)(C)C(=O)N2C` [Compound I-204, 4-(9-cyclopentyl-5,7,7-trimethyl-6-oxo-6,7,8,9-tetrahydro-5H-pyrimido[4,5-b][1,4]diazepin-2-ylamino)-N-((1R,4R)-4-hydroxycyclohexyl)-3-methoxybenzamide], with less than 10 nM; and `COc1cc(C(=O)NCC2(O)CCCCC2)ccc1Nc1ncc2c(n1)N(C1CCCC1)CC(C)(C)C(=O)N2C` [Compound I-205, 4-(9-cyclopentyl-5,7,7-trimethyl-6-oxo-6,7,8,9-tetrahydro-5H-pyrimido[4,5-b][1,4]diazepin-2-ylamino)-N-((1-hydroxycyclohexyl)methyl)-3-methoxy-benzamide], with less than 10 nM; and `COc1cc(C(=O)NN2CCCC2)ccc1Nc1ncc2c(n1)N(C1CCCC1)CC(C)(C)C(=O)N2C` [Compound I-206, 4-(9-cyclopentyl-5,7,7-trimethyl-6-oxo-6,7,8,9-tetrahydro-5H-pyrimido[4,5-b][1,4]diazepin-2-ylamino)-3-methoxy-N-(pyrrolidin-1-yl)benzamide], with less than 10 nM.

Take `COc1cc(C(=O)Nc2cccnc2)ccc1Nc1ncc2c(n1)N(C1CCCC1)CC(C)(C)C(=O)N2C` [Compound I-207, 4-(9-cyclopentyl-5,7,7-trimethyl-6-oxo-6,7,8,9-tetrahydro-5H-pyrimido[4,5-b][1,4]diazepin-2-ylamino)-3-methoxy-N-(pyridin-3-yl)benzamide]: the Ki was less than 10 nM. As for `COc1cc(C(=O)N2CC(F)(C3CC3)C2)ccc1Nc1ncc2c(n1)N(C1CCCC1)CC(C)(C)C(=O)N2C` [Compound I-208, 9-cyclopentyl-2-(4-(3-cyclopropyl-3-fluoroazetidine-1-carbonyl)-2-methoxyphenylamino)-5,7,7-trimethyl-8,9-dihydro-5H-pyrimido[4,5-b][1,4]diazepin-6(7)-one], the figure is less than 10 nM; as for `COc1cc(C(=O)N[C@@H]2CCc3ccccc32)ccc1Nc1ncc2c(n1)N(C1CCCC1)CC(C)(C)C(=O)N2C` [Compound I-209, (R)-4-(9-cyclopentyl-5,7,7-trimethyl-6-oxo-6,7,8,9-tetrahydro-5H-pyrimido[4,5-b][1,4]diazepin-2-ylamino)-N-(2,3-dihydro-1H-inden-1yl)-3-methoxy-benzamide], less than 10 nM. As for `COc1cc(C(=O)NC2CC3CCC2C3)ccc1Nc1ncc2c(n1)N(C1CCCC1)CC(C)(C)C(=O)N2C` (stereo not shown) [Compound I-210, N-(bicyclo[2.2.1]heptan-2-yl)-4-(9-cyclopentyl-5,7,7-trimethyl-6-oxo-6,7,8,9-tetrahydro-5H-pyrimido[4,5-b][1,4]diazepin-2-ylamino)-3-methoxybenzamide], the figure is less than 10 nM; as for `COc1cc(C(=O)NCC(C)(C)CO)ccc1Nc1ncc2c(n1)N(C1CCCC1)CC(C)(C)C(=O)N2C` [Compound I-211, 4-(9-cyclopentyl-5,7,7-trimethyl-6-oxo-6,7,8,9-tetrahydro-5H-pyrimido[4,5-b][1,4]diazepin-2-ylamino)-N-(3-hydroxy-2,2-dimethylpropyl)-3-methoxybenzamide], less than 10 nM; as for `COc1cc(C(=O)NCc2ccncc2)ccc1Nc1ncc2c(n1)N(C1CCCC1)CC(C)(C)C(=O)N2C` [Compound I-212, 4-(9-cyclopentyl-5,7,7-trimethyl-6-oxo-6,7,8,9-tetrahydro-5H-pyrimido[4,5-b][1,4]diazepin-2-ylamino)-3-methoxy-N-(pyridin-4-ylmethyl)benzamide], less than 10 nM.
